# Patent publication US9108921B2, “Therapeutic compounds and compositions” (AGIOS PHARMACEUTICALS, INC, priority 2014, dated 2015)
# How the values were obtained:
# [1] = biological target: PKR R532W (Homo sapiens, UniProt P30613, R532W); experiment: PKR Mutant Assay, AC50 against PKR R532W; assay type: biochemical; settings: mutant PKR R532W enzyme
# Procedure, shortened: (§1)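 LDH-coupled NADH depletion read as A340 change at room temperature after ADP (0.22-1.65 mM) start. Compounds, tested from 100 μM final in 3-fold steps over 11 points with 1% DMSO, sat 60 min with enzyme (80-400 ng/well), PEP 0.1-0.5 mM and NADH 180 uM in Tris pH 7.5/KCl/MgCl2/DTT/BSA buffer.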
# [2] = biological target: T1, PKR WT (Homo sapiens, UniProt P30613); experiment: PKR WT cell based AC50 assay; settings: wild type PKR
# T1 sequence (P30613 whole entry): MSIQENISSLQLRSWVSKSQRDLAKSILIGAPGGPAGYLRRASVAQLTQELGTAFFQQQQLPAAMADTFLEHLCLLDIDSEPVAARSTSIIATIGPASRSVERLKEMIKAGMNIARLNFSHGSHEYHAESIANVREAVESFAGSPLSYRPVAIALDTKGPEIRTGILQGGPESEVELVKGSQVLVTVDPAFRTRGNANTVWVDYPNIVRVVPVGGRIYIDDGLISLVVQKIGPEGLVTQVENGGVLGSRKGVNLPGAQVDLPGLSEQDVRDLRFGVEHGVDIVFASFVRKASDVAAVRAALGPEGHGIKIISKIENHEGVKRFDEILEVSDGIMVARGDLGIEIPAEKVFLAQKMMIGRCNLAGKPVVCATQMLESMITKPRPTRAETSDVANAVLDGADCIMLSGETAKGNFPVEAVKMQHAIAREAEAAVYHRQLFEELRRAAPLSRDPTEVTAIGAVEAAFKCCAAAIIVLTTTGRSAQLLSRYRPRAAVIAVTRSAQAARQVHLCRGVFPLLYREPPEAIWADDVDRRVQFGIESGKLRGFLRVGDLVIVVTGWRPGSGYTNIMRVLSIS
# [3] = biological target: PKR R510Q (Homo sapiens, UniProt P30613, R510Q); experiment: PKR Mutant Assay, AC50 against PKR R510Q; assay type: biochemical; settings: mutant PKR R510Q enzyme
# PKR R510Q, sequence (P30613 whole entry R510Q): as the sequence (P30613 whole entry) above, with R510Q counted along it
# Procedure, shortened: as §1
# [4] = biological target: T1, PKR WT; experiment: PKR WT enzymatic AC50 assay; assay type: biochemical; settings: wild type PKR
# Procedure, shortened: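 PK-LDH coupled assay, RT. Enzyme + cpd + PEP/NADH/LDH, 60 min pre-incubation, no ADP. ADP 0.22-1.65 mM to initiate; A340 kinetic read. Cpd 11 pts, 3-fold, 100 μM top.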
# PKR R532W, sequence (P30613 whole entry R532W): as the sequence (P30613 whole entry) above, with R532W counted along it
SMILES,AC50 [1] [nM],AC50 [2] [nM],AC50 [3] [nM],AC50 [4] [nM]
"Nc1nc2c(S(=O)(=O)Nc3ccc(C(=O)N4CCC(O)(c5ccccc5Cl)CC4)cc3)cccc2s1 [Compound 407, 2-amino-N-(4-(4-(2-chlorophenyl)-4-hydroxypiperidine-1-carbonyl)phenyl)benzo[d]thiazole-4-sulfonamide]",< 100,< 100,< 100,< 100
"CC(C)(C)CC1(O)CCN(C(=O)c2ccc(NS(=O)(=O)c3cccc4scnc34)cc2)CC1 [Compound 134, N-(4-(4-hydroxy-4-neopentylpiperidine-1-carbonyl)phenyl)benzo[d]thiazole-4-sulfonamide]",< 100,< 100,< 100,< 100
"O=C(c1ccc(NS(=O)(=O)c2cccc3cccnc23)cc1)N1CCC(O)(c2ccccc2OC(F)(F)F)CC1 [Compound 150, N-(4-(4-hydroxy-4-(2-(trifluoromethoxy)phenyl)piperidine-1-carbonyl)phenyl)quinoline-8-sulfonamide]",< 100,101 to 1000,< 100,< 100
"O=C(c1ccc(NS(=O)(=O)c2cccc3scnc23)cc1)N1CCC(O)(Cc2ccccc2C(F)(F)F)CC1 [Compound 412, N-(4-(4-hydroxy-4-(2-(trifluoromethyl)benzyl)piperidine-1-carbonyl)phenyl)benzo[d]thiazole-4-sulfonamide]",< 100,101 to 1000,101 to 1000,< 100
CC(C)CC1(O)CCN(C(=O)c2ccc(NS(=O)(=O)c3cccc4nc(N)cnc34)cc2)CC1 [Compound 439],< 100,< 100,< 100,< 100
"O=C(c1ccc(NS(=O)(=O)c2cccc3cccnc23)cc1)N1CCC(O)(CC2CC2(F)F)CC1 (stereo not drawn) [Compound 176, N-(4-(4-((2,2-difluorocyclopropyl)methyl)-4-hydroxypiperidine-1-carbonyl)phenyl)quinoline-8-sulfonamide]",< 100,< 100,101 to 1000,< 100
CC(F)(F)CCC1(O)CCN(C(=O)c2ccc(NS(=O)(=O)c3cccc4nccnc34)cc2OC(F)F)CC1 [Compound 436],< 100,101 to 1000,101 to 1000,101 to 1000
"O=C(c1ccc(NS(=O)(=O)c2cccc3cccnc23)cc1)N1CCC(O)(Cc2ccccc2C(F)(F)F)CC1 [Compound 109, N-(4-(4-hydroxy-4-(2-(trifluoromethyl)benzyl)piperidine-1-carbonyl)phenyl)quinoline-8-sulfonamide]",< 100,< 100,< 100,< 100
"O=C(c1ccc(NS(=O)(=O)c2cccc3cccnc23)cc1)N1CCC(O)(c2cccc(F)c2Cl)CC1 [Compound 123, N-[4-[4-(2-chloro-3-fluoro-phenyl)-4-hydroxy-piperidine-1-carbonyl]phenyl]quinoline-8-sulfonamide]",< 100,< 100,< 100,< 100
"O=C(c1ccc(NS(=O)(=O)c2cccc3ccccc23)cc1)N1CCC(O)(c2ccccc2Cl)CC1 [Compound 197, N-(4-(4-(2-chlorophenyl)-4-hydroxypiperidine-1-carbonyl)phenyl)naphthalene-1-sulfonamide]",< 100,101 to 1000,101 to 1000,< 100
"C=C(CC1(O)CCN(C(=O)c2ccc(NS(=O)(=O)c3cccc4scnc34)cc2)CC1)C(F)(F)F [Compound 390, N-(4-(4-hydroxy-4-(2-(trifluoromethyl)allyl)piperidine-1-carbonyl)phenyl)benzo[d]thiazole-4-sulfonamide]",< 100,< 100,< 100,< 100
"O=C(c1ccc(NS(=O)(=O)c2cccc3cccnc23)cc1)N1CCC(O)(CC2CC2)CC1 [Compound 144, N-(4-(4-(cyclopropylmethyl)-4-hydroxypiperidine-1-carbonyl)phenyl)quinoline-8-sulfonamide]",< 100,< 100,< 100,< 100
"O=C(c1ccc(NS(=O)(=O)c2cccc3cccnc23)cc1)N1CCC(O)(c2ccncc2Cl)CC1 [Compound 161, N-(4-(4-(3-chloropyridin-4-yl)-4-hydroxypiperidine-1-carbonyl)phenyl)quinoline-8-sulfonamide]",< 100,< 100,101 to 1000,< 100
"O=C(c1ccc(NS(=O)(=O)c2cccc3cccnc23)cc1)N1CCC(O)(c2cccc(F)c2F)CC1 [Compound 100, N-[4-[4-(2,3-difluorophenyl)-4-hydroxy-piperidine-1-carbonyl]phenyl]quinoline-8-sulfonamide]",< 100,< 100,< 100,< 100
"O=C(c1ccc(NS(=O)(=O)c2cccc3nccnc23)cc1)N1CCC(O)(Cc2ccccc2C(F)(F)F)CC1 [Compound 114, N-(4-(4-hydroxy-4-(2-(trifluoromethyl)benzyl)piperidine-1-carbonyl)phenyl)quinoxaline-5-sulfonamide]",< 100,< 100,< 100,< 100
"CC(F)(F)CCC1(O)CCN(C(=O)c2ccc(NS(=O)(=O)c3cccc4nccnc34)cc2)CC1 [Compound 396, N-(4-(4-(3,3-difluorobutyl)-4-hydroxypiperidine-1-carbonyl)phenyl)quinoxaline-5-sulfonamide]",101 to 1000,< 100,101 to 1000,< 100
"Cc1ncccc1C1(O)CCN(C(=O)c2ccc(NS(=O)(=O)c3cccc4cccnc34)cc2)CC1 [Compound 147, N-(4-(4-hydroxy-4-(2-methylpyridin-3-yl)piperidine-1-carbonyl)phenyl)quinoline-8-sulfonamide]",< 100,< 100,101 to 1000,< 100
"O=C(c1ccc(NS(=O)(=O)c2cccc3cccnc23)cc1)N1CCC(O)(c2ccccc2)CC1 [Compound 156, N-(4-(4-hydroxy-4-phenylpiperidine-1-carbonyl)phenyl)quinoline-8-sulfonamide]",< 100,< 100,101 to 1000,< 100
"O=C(c1ccc(NS(=O)(=O)c2cccc3cccnc23)cc1)N1CCC(O)(c2ccccc2F)CC1 [Compound 165, N-(4-(4-(2-fluorophenyl)-4-hydroxypiperidine-1-carbonyl)phenyl)quinoline-8-sulfonamide]",< 100,< 100,101 to 1000,< 100
"CC(C)CC1(CO)CCN(C(=O)c2ccc(NS(=O)(=O)c3cccc4cccnc34)cc2)CC1 [Compound 172, N-(4-(4-(hydroxymethyl)-4-isobutylpiperidine-1-carbonyl)phenyl)quinoline-8-sulfonamide]",< 100,< 100,< 100,< 100
"O=C(c1ccc(NS(=O)(=O)c2cccc3cccnc23)cc1)N1CCC(O)(c2ccncc2)CC1 [Compound 206, N-(4-(4-hydroxy-4-(pyridin-4-yl)piperidine-1-carbonyl)phenyl)quinoline-8-sulfonamide]",< 100,< 100,1010 to 10000,< 100
"Cc1nc2c(S(=O)(=O)Nc3ccc(C(=O)N4CCC(O)(c5ccccc5Cl)CC4)cc3)cccc2o1 [Compound 383, N-(4-(4-(2-chlorophenyl)-4-hydroxypiperidine-1-carbonyl)phenyl)-2-methylbenzo[d]oxazole-4-sulfonamide]",< 100,< 100,101 to 1000,< 100
"O=C(c1ccc(NS(=O)(=O)c2cccc3nccnc23)cc1)N1CCC(O)(CCCC(F)(F)F)CC1 [Compound 397, N-(4-(4-hydroxy-4-(4,4,4-trifluorobutyl)piperidine-1-carbonyl)phenyl)quinoxaline-5-sulfonamide]",< 100,< 100,< 100,< 100
"O=C(c1ccc(NS(=O)(=O)c2cccc3cccnc23)c2ccccc12)N1CCC(O)(c2ccccc2Cl)CC1 [Compound 226, N-(4-(4-(2-chlorophenyl)-4-hydroxypiperidine-1-carbonyl)naphthalen-1-yl)quinoline-8-sulfonamide]",< 100,101 to 1000,101 to 1000,< 100
"CS(=O)(=O)c1cccc(C2(O)CCN(C(=O)c3ccc(NS(=O)(=O)c4cccc5cccnc45)cc3)CC2)c1 [Compound 182, N-(4-(4-hydroxy-4-(3-(methylsulfonyl)phenyl)piperidine-1-carbonyl)phenyl)quinoline-8-sulfonamide]",,< 100,1010 to 10000,< 100
"O=C(c1ccc(NS(=O)(=O)c2cccc3cccnc23)cc1)N1CCC(CO)(Cc2ccccc2)CC1 [Compound 149, N-(4-(4-benzyl-4-(hydroxymethyl)piperidine-1-carbonyl)phenyl)quinoline-8-sulfonamide]",< 100,< 100,,< 100
O=C(c1ccc(NS(=O)(=O)c2ccc(F)c3scnc23)cc1)N1CCC(O)(c2ccccc2Cl)CC1 [Compound 231],101 to 1000,,1010 to 10000,101 to 1000
Nc1nc2cc(S(=O)(=O)Nc3ccc(C(=O)N4CCC(O)(c5ccccc5Cl)CC4)cc3)c(F)cc2s1 [Compound 418],> 10000,,> 10000,1010 to 10000
